Source: US20180110803A1, “Neutral Electrolyzed Water and Uses Thereof” (priority 2016, published 2018)

System: Wistar rats
Experiment: formalin model of inflammatory pain
Format: in vivo
Settings: 100 mg/paw subcutaneous, 5 minutes before formalin

O=C(c1ccccc1)c1ccc2n1CCC2C(=O)O (stereo not shown) [Ketorolac, ketorolac] was tested, and the “reduction of inflammatory pain (nociceptive response)” value was roughly 50%.
